Measurements taken from PMC8807399, “Synthesis, Characterization, and in vivo Evaluation of a Novel Potent Autotaxin-Inhibitor” (Frontiers in Pharmacology, 2022).
Converted amounts (≈) assume the structure as drawn.

How the values were obtained:
human ATX = target: T1, human ATX (Homo sapiens, UniProt Q13822); assay: Autotaxin inhibition assay (Amplex-Red); format: biochemical; conditions: ATX 3 nM, LPC 18:1 30 μM, read-out: hATX IC50
T1 construct: made in house
Protocol: Plates were sealed and incubated for 5 min. The final assay concentrations were ATX 3 nM, choline oxidase 2 U/ml, horseradish peroxidase 4 U/ml, LPC 18:1 30 μM, Amplex Red 50 μM, and DMSO 2%.

[1] = Lipophilicity (LogD, octanol/buffer); format: physicochemical; conditions: 1-octanol / 25 mM phosphate buffer; pH 7.4, octanol/25 mM phosphate buffer
Protocol: The experiment started with the accurate coating of the hydrophobic layer (0.45 µm PVDF membranes), which was fixed on the bottom of each DIFI©-tube (Weidmann Medical Technology AG, Rapperswil, Switzerland). The coated membranes were then connected to a 96-well plate which has been prefilled with exactly 150 µl of the selected aqueous buffer solution (25 mM phosphate buffer, pH 7.4). The buffer solution contains already the compound of interest with a maximum starting concentration of 85 µM. To expand the measurement range down to logD = −0.5 and up to logD = +4, it is necessary to carry out the procedure at two different octanol/water ratios: One with an excess of octanol for hydrophilic compounds (logD < 1) and one with a low volume of octanol for the lipophilic compounds (logD > 1). Therefore, parts of the DIFI©-tubes were filled with 15 µl 1-octanol and another part with 1 µl 1-octanol. The resulting sandwich guarantees that the membrane was completely dipped in the buffer solution. The plate was then sealed and shaken for 12 h at room temperature (23°C). During this time, the substance is distributed between the layer, the octanol, and the buffer solution. After having reached a distribution equilibrium, the DIFI©-tubes were easily disassembled from the top of the 96-well plate, so that the remaining sample concentration in the aqueous phase could be analyzed by LC/MS.

HT-solubility assay = format: physicochemical; conditions: aqueous buffer, thermodynamic from solid; phosphate buffer pH 6.5
Protocol: This assay was performed on a TECAN station starting from 10 mM DMSO stock solutions of the test compounds. Two aliquots of the test compound were dried and dissolved in phosphate buffer at pH 6.5. Sonication supports optimal re-solubilization. The solutions were then filtered and diluted (3 different dilution levels for each compound) followed by quantification of the dissolved material with Rapid-Fire MS. Quantification was performed for each test compound with a 6-point calibration curve prepared with the same DMSO starting solution.

[2] = In vitro microsomal stability, human; format: in vitro ADME; conditions: human microsomes, 1 µM; value of 10 = low clearance, essentially below detection limit
Protocol: (§1) Incubations of a test compound at a concentration of 1 µM with microsomes (0.5 mg/ml) from the appropriate species (human, mouse, or rat) plus cofactor NADPH were performed in 96-well plates at 37°C on a TECAN automated liquid handling system (Tecan Group Ltd., Männedorf, Switzerland). After pre-incubation of the test compound with the microsomes for 10 min, the enzymatic reaction was started by the addition of cofactors. Aliquots of the incubations are removed at 1, 3, 6, 9, 15, 25, 35, and 45 min and are then quenched with 1:3 (v/v) acetonitrile containing internal standards. Samples were then cooled and centrifuged before analysis of the supernatant by LC-MS/MS. Logarithmic Peak area ratios (test compound peak area/internal standard peak area) were plotted against incubation time and a linear fit made to the data with emphasis upon the initial rate of compound disappearance. The slope of the fit was then used to calculate the intrinsic clearance: Clint (µL/min/mg protein) = −slope (min-1) * 1,000/[protein concentration (mg/ml)].

[3] = In vitro microsomal stability, mouse; format: in vitro ADME; conditions: mouse microsomes, 1 µM; value of 10 = low clearance, essentially below detection limit
Protocol: as §1

[4] = In vitro microsomal stability, rat; format: in vitro ADME; conditions: rat microsomes, 1 µM; value of 10 = low clearance, essentially below detection limit
Protocol: as §1

[5] = Glutathione addition screening; format: in vitro ADME; conditions: human liver microsomes + NADPH + GSH
Protocol: All sample handling was performed based on a 96-well plate format using an automated pipetting system. The test compounds, positive controls (diclofenac, troglitazone, nefazodone, 4-[[1-(4-fluorophenyl)-2-methyl-1H-imidazol-4-yl]ethynyl]-2-methylpyridine) and solvent control (DMSO) were incubated with human liver microsomes supplemented with NADPH and reduced GSH. Stable GSH conjugates whose production can be assumed to be the result of chemically reactive metabolites were detected using a quadrupole time of flight mass spectrometer run in untargeted full scan accurate mass MSE mode (Waters Xevo G1 QTOFMSE; Waters GmbH, Eschborn, Germany). This generic GSH adduct detection method and the assay workflow are taking advantage of the specific fragmentation behavior of the peptide moiety upon collision induced dissociation of GSH adducts and so are largely independent of the conjugate (“X”) itself.

Single dose PK in rats = format: in vivo; conditions: rat
Protocol: Exposures in animals treated with ATX-inhibitors were determined from K2EDTA treated plasma by LC-MS/MS at different time points. 25 µL of plasma was used for a single concentration determination. Concentration/time profiles were analyzed with MS Excel (Microsoft Corporation, Redmond, WA, United States).
For PK experiments for 7, 13, 14, and 15, respectively, animals were treated either iv or po and exposures were determined at different time points after compound administration. Suitable formulations for 13 were, for example, NMP:Tris buffer pH 8.5 (30%/70%) for iv administration with a nominal drug concentration of 1 mg/ml (dose 2 mg/kg) and a suspension in NMP:gelatine/NaCl (10%/90%) for po administration with a nominal drug concentration of 2.5 mg/ml (dose 10 mg/kg). PK parameters in Table 2 were estimated from the concentration time profiles using Phoenix WinNonlin software (Certara, Princeton, NJ, United States).

IC50 (human ATX) [nM]	logD at 12 h [1]	solubility (HT-solubility assay) [µg/mL]	Mic CL h [2]	Mic CL m [3]	Mic CL r [4] [µL/m/mg prot]	GSH adducts [5]	AUC(0-inf) (Single dose PK in rats; plasma, iv bolus, 3 mg/kg) [ng·h/mL]	half-life (Single dose PK in rats; plasma, iv bolus, 3 mg/kg) [min]	clearance (Single dose PK in rats; plasma, iv bolus, 3 mg/kg, read-out: CLp) [mL/min/kg]	Vd (Single dose PK in rats; plasma, iv bolus, 3 mg/kg, read-out: Vdss) [L/kg]	AUC(0-inf) (Single dose PK in rats; plasma, oral gavage, 20 mg/kg) [ng·h/mL]	Cmax (Single dose PK in rats; plasma, oral gavage, 20 mg/kg) [ng/mL]	Tmax (Single dose PK in rats; plasma, oral gavage, 20 mg/kg) [min]	half-life (Single dose PK in rats; plasma, oral gavage, 20 mg/kg) [min]	Oral F (Single dose PK in rats; oral gavage, 20 mg/kg) [%]	Compound
220	3.6	< 1	92 µL/m/mg prot	81 µL/m/mg prot	–	–	–	–	–	–	–	–	–	–	–	O=C(OCc1cc(Cl)cc(Cl)c1)N1CC2(CCN(C(=O)c3ccc4[nH]c(=O)oc4c3)CC2)C1 [Compound 3, trans-3,5-Dichlorobenzyl 7-(2-oxo-2,3-dihydrobenzo[d]oxazole-6-carbonyl)-2,7-diaza-spiro[3.5]nonane-2-carboxylate]
67	3.6	3 (≈ 6.32 µM)	30 µL/m/mg prot	63 µL/m/mg prot	29	pos	–	–	–	–	–	–	–	–	–	O=C(OCc1cc(Cl)cc(Cl)c1)N1CCC2(CC1)CN(C(=O)c1ccc3[nH]nnc3c1)C2 [Compound 9, 3,5-Dichlorobenzyl 2-(1H-benzo[d][1,2,3]triazole-5-carbonyl)-2,7-diazaspiro[3.5]-nonane-7-carboxylate]
65	3.3	19 (≈ 39.9 µM)	64 µL/m/mg prot	288 µL/m/mg prot	335	pos	–	–	–	–	–	–	–	–	–	O=C(OCc1cc(Cl)cc(Cl)c1)N1C[C@@H]2CN(C(=O)c3ccc4[nH]c(=O)oc4c3)C[C@@H]2C1 [Compound 5, (3aR,6aS)-3,5-Dichlorobenzyl 5-(2-oxo-2,3-dihydrobenzo[d]oxazole-6-carbonyl)-hexahydropyrrolo[3,4-c]pyrrole-2(1H)-carboxylate]
4	3.1	9 (≈ 19.6 µM)	16 µL/m/mg prot	17 µL/m/mg prot	10	pos	2140	48	23	1.3	7900	2500	15	96	54	O=C(OCc1cc(Cl)cc(Cl)c1)N1C[C@@H]2CN(C(=O)c3ccc4[nH]nnc4c3)C[C@H]2C1 [Compound 7, (3aS,6aS)-5-(1H-Benzotriazole-5-carbonyl)-hexahydro-pyrrolo [3,4-c]pyrrole-2-carboxylic acid 3,5-dichloro-benzyl ester]
4	3.5	9 (≈ 19 µM)	23 µL/m/mg prot	65 µL/m/mg prot	–	pos	–	–	–	–	–	–	–	–	–	O=C(OCc1cc(Cl)cc(Cl)c1)N1CC[C@@H]2CN(C(=O)c3ccc4[nH]nnc4c3)C[C@H]2C1 (relative stereo) [Compound 6, trans-2-(1H-Benzotriazole-5-carbonyl)-octahydro-pyrrolo[3,4-c]pyridine-5-carboxylic acid 3,5-dichloro-benzyl ester]
1	–	7 (≈ 14.3 µM)	252 µL/m/mg prot	727 µL/m/mg prot	–	–	–	–	–	–	–	–	–	–	–	O=C(OCc1cc(Cl)cc(Cl)c1)N1CC[C@@H]2CN(C(=O)c3ccc4[nH]nnc4c3)C[C@@H]2CC1 [Compound 10, cis-3,5-Dichlorobenzyl 2-(1H-benzo[d][1,2,3]triazole-5-carbonyl)octahydropyrrolo-[3,4-d]azepine-6(7H)-carboxylate]
1	2.3	< 1	10/10/na µL/m/mg prot	10/10/na µL/m/mg prot	–	Neg	–	–	–	–	–	–	–	–	–	O=C(/C=C/c1ccc(OC(F)(F)F)cc1)N1C[C@@H]2CN(C(=O)c3ccc4[nH]nnc4c3)C[C@H]2C1 [Compound 11, (E)-1-((3aR,6aR)-5-(1H-benzo[d][1,2,3]triazole-5-carbonyl)hexahydropyrrolo[3,4-c]pyrrol-2(1H)-yl)-3-(4-(trifluoromethoxy)phenyl)prop-2-en-1-one]
–	2.7	< 1	65 µL/m/mg prot	78 µL/m/mg prot	84	pos	–	–	–	–	–	–	–	–	–	O=C(CCN1CCN(C(=O)OCc2cc(Cl)cc(Cl)c2)CC1)c1ccc2[nH]c(=O)oc2c1 [Compound 1, reference compound]
17	3.6	< 1	54 µL/m/mg prot	149 µL/m/mg prot	–	pos	–	–	–	–	–	–	–	–	–	O=C(OCc1cc(Cl)cc(Cl)c1)N1CCC2(CC1)CN(C(=O)c1ccc3[nH]c(=O)oc3c1)C2 [Compound 4, 3,5-Dichlorobenzyl 2-(2-oxo-2,3-dihydrobenzo[d]oxazole-6-carbonyl)-2,7-diaza-spiro[3.5]-nonane-7-carboxylate]
265	3.1	34 (≈ 73.9 µM)	23 µL/m/mg prot	68 µL/m/mg prot	–	pos	–	–	–	–	–	–	–	–	–	O=C(OCc1cc(Cl)cc(Cl)c1)N1C[C@@H]2CN(C(=O)c3ccc4[nH]nnc4c3)C[C@@H]2C1 [Compound 8, (3aR,6aS)-3,5-dichlorobenzyl 5-(1H-benzo[d][1,2,3]triazole-5-carbonyl)hexahydro-pyrrolo[3,4-c]pyrrole-2(1H)-carboxylate]

Compound	IC50 (human ATX) [nM]	logD at 12 h [1]	solubility (HT-solubility assay) [µg/mL]	Mic CL h [2]	Mic CL m [3]	Mic CL r [4] [µL/m/mg prot]	GSH adducts [5]	AUC(0-inf) (Single dose PK in rats; plasma, iv bolus, 3 mg/kg) [ng·h/mL]	half-life (Single dose PK in rats; plasma, iv bolus, 3 mg/kg) [min]	clearance (Single dose PK in rats; plasma, iv bolus, 3 mg/kg, read-out: CLp) [mL/min/kg]	Vd (Single dose PK in rats; plasma, iv bolus, 3 mg/kg, read-out: Vdss) [L/kg]	AUC(0-inf) (Single dose PK in rats; plasma, oral gavage, 20 mg/kg) [ng·h/mL]	Cmax (Single dose PK in rats; plasma, oral gavage, 20 mg/kg) [ng/mL]	Tmax (Single dose PK in rats; plasma, oral gavage, 20 mg/kg) [min]	half-life (Single dose PK in rats; plasma, oral gavage, 20 mg/kg) [min]	Oral F (Single dose PK in rats; oral gavage, 20 mg/kg) [%]
O=C(OCc1cc(Cl)cc(Cl)c1)N1CC[C@@H]2CN(C(=O)c3ccc4[nH]c(=O)oc4c3)C[C@H]2C1 (relative stereo) [Compound 2, trans-3,5-Dichlorobenzyl 2-(2-oxo-2,3-dihydrobenzo[d]oxazole-6-carbonyl)hexa-hydro-1H-pyrrolo[3,4-c]pyridine-5(6H)-carboxylate]	3	3.7	< 1	39 µL/m/mg prot	74 µL/m/mg prot	–	formation of GSH adducts was still observed and pos	–	–	–	–	–	–	–	–	–
